Experimental data reported in patent US11266654B2 (AI Therapeutics, Inc., priority 2014, dated 2022).

Tests used:
U937 = U937 (WO 2006/128129); cited from earlier work
[1] = system: diffuse large B cell lymphoma cells; test: Apotox-Glo Triplex assay (viability, apoptosis, necrosis); type: cell-based; conditions: 48 hours
Procedure: Apoptosis was quantified and distinguished from necrosis using the Apotox-Glo Triplex assay (Promega, Inc.) according to the manufacturer's instructions. In this assay, viability, apoptosis, and necrosis are assessed simultaneously using three different markers (GF-AFC, Caspase-3/7, and bis-AAF-R110, respectively).

[2] = active Crohn's disease, placebo-controlled (Sands et al. 2010); cited from earlier work
IL-12/IL-23 synthesis = conditions: psoriasis, oral administration, open label (Wada et al. 2012); cited from earlier work
THP-1 = THP-1 (WO 2006/128129); cited from earlier work
SUDHL-4 cells = test: Screen of 93-drug library with and without apilimod (CellTiter-Glo 72 h); type: cell-based; conditions: Homo sapiens, SU-DHL-4
Source text: A manually curated library of 93 drugs including both FDA approved and unapproved drugs was used in the screen.

Normal lung fibroblasts = test: Cytotoxicity on normal cells; type: cell-based; conditions: concentrations as high as 10 micromolar
Source text: (§1) 35 cell lines were identified as sensitive to apilimod-induced cytotoxicity.

[3] = system: representative cancer cell line; test: Vacuolization of live cells; type: cell-based; conditions: 500 nM, 24 h
H4 neuroglioma cell line = test: Cyto-ID Autophagy detection; type: cell-based, Human; conditions: 72 hours of treatment
Source text: Autophagy was quantified using the Cyto-ID Autophagy detection kit (Enzo) according to manufacturer's directions.

[4] = system: peripheral blood mononuclear cells; conditions: peripheral blood mononuclear cells (Wada et al. 2007); cited from earlier work
[5] = system: 122 human cancer cell lines; test: Cancer cell line sensitivity screen (cell viability); type: cell-based; conditions: non-Hodgkin's Lymphoma cell lines; sensitive if IC50 less than 500 nM
Source text: as §1
The most sensitive of those tested were non-Hodgkin's Lymphoma (NHL) cell lines. […] NHL represents a diverse group of hematopoietic malignancies that vary in severity, with subtypes ranging from slow growing to aggressive. Subtypes of NHL include diffuse large B cell lymphoma (DLBCL), Burkitt's lymphoma, mantle lymphoma, and follicular B cell lymphoma. DLBCL is divided into two subtypes, GCB and ABC, based on gene expression and cell of origin. The GCB are germinal center B cell type, arising from normal germinal center B cells, and the ABC are activated B cell type, arising from post-germinal center B cells in the process of differentiating into plasma cells.

Jurkat = Jurkat (WO 2006/128129); cited from earlier work
HELA = HELA (WO 2006/128129); cited from earlier work

Cc1cccc(/C=N/Nc2cc(N3CCOCC3)nc(OCCc3ccccn3)n2)c1 [apilimod]
cytotoxicity (U937): not cytotoxic
apoptosis (Caspase-3/7 marker) [1]: increased apoptosis
clinical efficacy [2]: did not demonstrate efficacy over placebo
immunomodulatory activity in patients (IL-12/IL-23 synthesis): showed immunomodulatory activity
cytotoxicity (THP-1): not cytotoxic
IC20 (SUDHL-4 cells): 10 nM
apilimod-induced cytotoxicity (Normal lung fibroblasts): insensitive
vacuolization [3]: induces vacuolization
autophagy (autophagic vacuoles) (H4 neuroglioma cell line): induced autophagy in a dose-dependent manner
cytotoxicity [4]: not cytotoxic
percentage of NHL cell lines tested that were sensitive [5]: over 50%
cytotoxicity (Jurkat): not cytotoxic
cytotoxicity (HELA): not cytotoxic
